From patent publication US20250380697A1, “ISOXAZOLINE DERIVATIVE COMPOUND AND INSECTICIDAL COMPOSITION COMPRISING SAME” (KYUNG NONG CORPORATION, priority 2022, published 2025)

Key:
Type in all cases: in vivo
Spodoptera exigua = assay: Pesticidal activity against Spodoptera exigua, leaf-dipping method; conditions: counted 24, 48, 72 hours, time not given, read-out: mortality rate, Spodoptera exigua
Experimental: Cabbage (Daiya) leaves were cut into pieces with a diameter of 5.8 cm, dipped in the pesticide composition where the compound of Synthesis Example 2 was diluted (the solvent=distilled water+acetone 50,000 mg/L+Triton X-100 100 mg/L) for 30 seconds, and sufficiently shade-dried. Then, the shade-dried cabbage leaves were placed in a petri dish (8.8 cm in diameter) covered with filter paper and repeatedly inoculated 3-5 times with the second to the third instar larvae of Spodoptera exigua, 10 larvae per inoculation. In particular, the Spodoptera exigua larvae used were those purchased from the Bio Utilization Institute (Andong, Korea). Then, the Spodoptera exigua larvae were stored under the conditions of 16 hours of light and 8 hours of dark, 25±1° C. and 50-60% relative humidity, and the number of live Spodoptera exigua larvae was counted 24, 48, and 72 hours after the inoculation. Thereafter, the larvae mortality rate was calculated in the same manner as in Test Example 1 above.

Manulea degenerella = assay: Pesticidal activity against Manulea degenerella, spray method; conditions: third instar larvae, counted 24, 48, 72 hours, time not given
Text: A water-soaked filter paper (9.0 cm in diameter) was placed in an insect breeding dish (Lab Guide®) with a diameter of 9.0 cm and a height of 4.0 cm, and then parafilm (width 4.0 cm×height 4.0 cm) was placed thereon. Before treating with a pesticide composition, 10 of the third instar Manulea degenerella larvae were inoculated per breeding dish using a No. 4 brush. In particular, Manulea degenerella larvae used were those collected in Icheon, Gyeonggi-do (Korea). Then, the pesticide composition where the compound of Synthesis Example 2 was diluted (the solvent=distilled water+acetone 50,000 mg/L+Triton X-100 100 mg/L) was loaded into a 100 mL small sprayer, and sprayed 10-12 times at a distance of 30 cm and a height of 50 cm, and one cotyledons of a persimmon tree, which is a host plant, were added one at a time. Then, the Manulea degenerella larvae were stored under the conditions of 16 hours of light and 8 hours of darkness, 25±1° C., and relative humidity of 50-60%, and the number of live Manulea degenerella larvae was counted 24, 48, and 72 hours after the inoculation. Thereafter, the larvae mortality rate was calculated in the same manner as in Test Example 1 above.

Maruca vitrta = assay: Pesticidal activity against Maruca vitrta, artificial feed-dipping method; conditions: counted 24, 48, 72 hours, time not given
Experimental: Cabbage (Daiya) leaves were cut into pieces with a size of 1 cm×1 cm×1 cm, dipped in the pesticide composition where the compound of Synthesis Example 2 was diluted (the solvent=distilled water+acetone 50,000 mg/L+Triton X-100 100 mg/L) for 30 seconds, and then sufficiently shade-dried by placing them on aluminum foil. In this case, the artificial feed used was prepared by a process, in which (1) 13 g of agar powder and 625 mL of secondary distilled water were added into a 1 L beaker and boiled in the microwave for 10 minutes; (2) the agar boiled in the microwave was added into a blender and then 75 g of soybean powder, 20 g of red bean powder, 10 g of malt powder, and 175 mL of secondary distilled water were added thereto and mixed together; and (3) after the resulting mixture was cooled to 50° C., 5 g of a vitamin mixture, 4 g of ascorbic acid, 1 g of sorbic acid, 1 g of β-sitosterol, 10 g of glucose, 10 g of cellulose, 3 g of cholesterol, 1.5 g of methyl-p-hydroxybenzoate, 0.5 g of aureomycin, and 0.4 g of fumidil B were added thereto, mixed together, and then thoroughly cooled. Before placing the artificial feed pieces in a petri dish (¢90 mm×15 mm), parafilm (5.1 cm×5.1 cm) was placed on top of a distilled water-treated filter paper (Ø90 mm) to maintain humidity, and the artificial feed pieces were placed on top of the parafilm.
Then, the second to the third instar larvae of Maruca vitrta were repeatedly inoculated 3-5 times, 10 larvae per inoculation. In this case, the Maruca vitrta larvae used were those purchased from the Bio Utilization Institute (Andong, Korea). Then, the Maruca vitrta larvae were stored under 16 hours of light: 8 hours of dark, 25±1° C., and 50-60% relative humidity, and the number of live Maruca vitrta larvae was counted 24, 48, and 72 hours after inoculation. Thereafter, the larvae mortality rate was calculated in the same manner as in Test Example 1 above.

[1] = tested on: Resistant Plutella xylostella; assay: Resistance (tolerance) test against Plutella xylostella; conditions: leaf-dipping, chlorantraniliprole-selected resistant individuals, counted 24 and 48 hours, read-out: mortality rate, Resistant Plutella xylostella
Experimental: Resistance (tolerance) tests for pesticide compositions were performed on Plutella xylostella. In this case, the Plutella xylostellas used were resistant individuals obtained as follows: radish sprouts were germinated using a moth breeding acrylic cage (25 cm×30 cm×30 cm) to induce egg-laying in a breeding room in the Chungbuk National University (Korea), and the adult insects were collected using an InsectaVac Aspirator (BioQuip®) and induced to lay eggs again by applying a selection pressure using diamide-based chlorantraniliprole at 12.5 ppm once a month to breed for multiple generations.
Cabbage leaves were dipped in the pesticide composition where the compound was diluted (the solvent=distilled water+acetone 50,000 mg/L+Triton X-100 100 mg/L) for 30 seconds, and sufficiently shade-dried. Then, the shade-dried cabbage leaves were placed in a petri dish (8.8 cm in diameter) covered with a filter paper and repeatedly inoculated 3-5 times with third instar larvae of Plutella xylostella, which are resistant individuals, 10 larvae per inoculation. Then, the Plutella xylostella larvae were stored under the conditions of 16 hours of light and 8 hours of dark, 25±1° C., and relative humidity of 50-60%, and the number of live […] larvae was counted 24 and 48 hours after the inoculation. Thereafter, the larvae mortality rate was calculated in the same manner as in Test Example 1 above, and the results are shown in Table 2 below.

Helicoverpa armigera = assay: Pesticidal activity against Helicoverpa armigera, leaf-dipping method; conditions: counted 24, 48, 72 hours, time not given, read-out: mortality rate, Helicoverpa armigera
Experimental: Cabbage (Daiya) leaves were cut into pieces with a diameter of 5.8 cm, dipped in the pesticide composition where the compound of Synthesis Example 2 was diluted (the solvent=distilled water+acetone 50,000 mg/L+Triton X-100 100 mg/L) for 30 seconds, and sufficiently shade-dried. Then, the shade-dried cabbage leaves were placed in a petri dish (8.8 cm in diameter) covered with a filter paper and repeatedly inoculated 3-5 times with third instar larvae of Helicoverpa armigera, 10 larvae per inoculation. In this case, Helicoverpa armigera larvae used were those purchased from the Andong National University (Korea). Then, the Helicoverpa armigera larvae were stored under the conditions of 16 hours of light and 8 hours of dark, 25±1° C., and relative humidity of 50-60%, and the number of live Helicoverpa armigera larvae was counted 24, 48, and 72 hours after the inoculation. Thereafter, the larvae mortality rate was calculated in the same manner as in Test Example 1 above.

Row | Compound | mortality at 1 ppm (Spodoptera exigua) [%] | mortality at 10 ppm (Spodoptera exigua) [%] | mortality rate, Manulea degenerella (Manulea degenerella; 0.1 ppm) [%] | mortality rate, Manulea degenerella (Manulea degenerella; 1 ppm) | mortality rate, Maruca vitrta (Maruca vitrta; 0.1 ppm) [%] | mortality rate, Maruca vitrta (Maruca vitrta; 1 ppm) [%] | mortality at 0.1 ppm [1] [%] | mortality at 0.3 ppm [1] [%] | mortality at 1 ppm [1] [%] | mortality at 0.1 ppm (Helicoverpa armigera) [%]
1 | CON=CNC(=O)c1ccc(C2=NOC(c3cc(Cl)cc(Cl)c3)(C(F)(F)F)C2)cc1C (stereo not shown) [Comparative Example 1, fluxametamide] | 100 | 100 | 0 | 16%% | 23 | 90 | 34 | 38 | 58 | 78
2 | Cc1cc(C2=NOC(c3cc(Cl)cc(C(F)(F)F)c3)(C(F)(F)F)C2)ccc1C(=O)NC(=O)C1CC1 (racemic) [Synthesis Example 2] | 100 | 100 | 100 | 100% | 100 | 100 | 93 | 96 | 100 | 100
3 | CNC(=O)c1cc(Cl)cc(C)c1NC(=O)c1cc(Br)nn1-c1ncccc1Cl [Comparative Example 2, chlorantraniliprole] | 46 | 71 | 100 | 100% | 33 | 83 |  |  | 34 | 31
